{"source": "patent US20190374601A1", "about": "“METHODS FOR TREATING FUNGAL INFECTIONS” (priority 2017, published 2019)", "assay_type_in_all_cases": "in vivo", "key": {"T. mentagrophytes": {"test_system": "T. mentagrophytes", "experiment": "Clinical evaluation of infected skin, T. mentagrophytes dermatophytosis guinea pig model, different doses once weekly, Example 2", "conditions": "evaluated study day 12, relative to vehicle control", "experimental": "Procedures for animal care and use, preparation of standard inoculum, and infection of the animals were carried out following the same steps as described in Example 1.\nInfected guinea pigs were randomized into the following (1)-(5) groups (10 per group) (see Table 4): (1) a vehicle control (water+mannitol); (2) terbinafine 10 mg/kg PO days 1 and 8, as a positive control; (3) CD101 10 mg/kg SQ days 1 and 8; (4) CD101 20 mg/kg SQ days 1 and 8; and (5) CD101 40 mg/kg SQ days 1 and 8.\nAnimals were treated with CD101 SQ or PO (for terbinafine) once a week on days 1 and 8.\nStudy Day 1: Infect the animals with T. mentagrophytes and begin treatments.\nStudy Day 8: Last treatment.\nStudy Day 12: Clinical evaluation of the four quadrants in the marked area is done. Hair samples were obtained from each quadrant. Hairs (10 per quadrant) were planted in Potato Dextrose Agar, and incubated for 48 h for mycological evaluation. Procedures for clinical and mycological evaluations are described below.\nThe compounds was administered SQ or PO (0.3 mL/kg […]).\n(§1) Clinical assessment of local changes of the infected skin area was scored as follows:\n(§2) 1=Few slightly erythematous places on the skin\n(§3) 2=Well-defined redness, swelling with bristling hairs.\n(§4) 3=Large areas or marked redness incrustation, scaling, bald patches, ulcerated in places.\n(§5) 4=Partial damage to the integument and loss of hair\n(§6) 5=Extensive damage to the integument and complete loss of hair at the site of infection.\nAny other local skin reactions were noted. The assessment of clinical evaluation in the change of scores per treatment group was expressed as percentage relative to the untreated control group of animals using the following formula:\nwhere T=Scores in the test group. K=Scores in the untreated control"}, "[1]": {"experiment": "Mortality, clinical observations and body weights after subcutaneous injection in cynomolgus monkeys", "conditions": "30, 60, 120 mg/kg/dose SC once every 3 days (5 doses)", "experimental": "(§7) Dose levels were 30, 60, and 120 mg/kg/dose for Groups 2, 3, and 4, respectively. […] The dose volumes were 1.2, 0.3, 0.6, and 1.2 mL/kg spread evenly over 4, 1, 2, and 4 dose sites for Groups 1-4, respectively, on each day of dosing. The control and 120 mg/kg/dose groups each consisted of 5 males and 5 females, and the 30 and 60 mg/kg/dose groups each consisted of 3 males and 3 females.\nThe animals were observed twice daily for mortality and moribundity. Clinical examinations were performed once daily for at least 6 consecutive days, including the day of randomization, prior to randomization, prior to dosing, 1-2 hours postdosing, once daily on nondosing days, and once daily during the recovery period. Detailed physical examinations were performed at least weekly during the acclimation period until randomization, on the day of randomization, weekly (±2 days) during the study period, and on the day of the scheduled necropsies. […] Individual body weights were recorded weekly (±2 days). […] Clinical pathology parameters (hematology, coagulation, serum chemistry, and urinalysis) were analyzed during acclimation prior to randomization (Study Day −15), and on the day of the primary (Study Day 17) and recovery (Study Day 45) necropsies. […]"}, "[2]": {"test_system": "T. mentagrophytes ATCC 24953", "experiment": "Clinical evaluation of infected skin, T. mentagrophytes dermatophytosis guinea pig model, Example 1", "conditions": "for Percent Efficacy Clinical: evaluated study day 10, relative to vehicle control", "experimental": "A request was made to the Animal Resource Center (ARC) at Case Western Reserve University to order the required number of male albino Harlan-Sprague-Dawley Guinea-Pigs (San Diego, Calif.) with a body weight of 450-500 g. Animals were allowed to acclimate for a minimum of 5 days prior to use. Environmental controls for the animal room were set to maintain a temperature of 16 to 22° C., a relative humidity of 30-70%, and a 12:12 light-dark cycle.\nT. mentagrophytes ATCC 24953 was used as the infecting fungus. This strain was selected because it can cause skin infection and results in inflammatory reaction.\nT. mentagrophytes (from frozen stock) was sub-cultured on Potato Dextrose Agar plates and incubated at 30° C. for 5-7 days. The colonies were scraped from the plates using sterile normal saline (NaCl 0.85%) solution. After washing for three times with sterile saline the conidia were re-suspended in the same solution. Ten-fold dilutions of conidia suspension were prepared and counted using a hemacytometer. Working suspension of conidia was prepared at a final concentration of 1×10^7 Colony Forming Units (CFUs)/100 μL in normal saline.\nEach animal was anesthetized with a cocktail of xylazine and ketamine: 0.2 mL intramuscularly. Using an electric shaver, hair was clipped on left side of the guinea pig back. A closer shave was done with a disposable razor. Using a stencil, a square of 2.5 cm×2.5 cm was marked. The marked skin area was abraded with sterile fine grit sandpaper. A cell suspension containing 1×10^7 conidia in 100 μL was applied and rubbed thoroughly on the abraded skin.\nBeginning two hours post inoculation, animals were treated subcutaneously (SQ) for CD101 and orally (PO) terbinafine once daily for a period of nine days, or once a week on days 1 and 8.\nStudy Day 1: Infected the animals with T. mentagrophytes and begin treatments.\nStudy Day 9 (treatment day 9): End treatments.\nStudy Day 10: Clinical evaluation of the four quadrants in the marked area was done. Hair samples were obtained from each quadrant (10 per quadrant). Hairs were planted in Potato Dextrose Agar, and incubated for 48 h for mycological evaluation. Procedures for clinical and mycological evaluations are described below.\nCD101 was administered SQ in 0.3 mL, while the terbinafine was given orally in 0.3 mL. Vehicle treated group was also included.\nas §1, §2, §3, §4, §5, §6\nAny other local skin reactions were noted. The assessment of clinical evaluation in the change of scores per treatment group is expressed as percentage relative to the vehicle control group of animals using the following formula:\nwhere, T=Scores in the test group. K=Scores in the untreated control"}, "[3]": {"experiment": "Toxicokinetic evaluation (plasma) after subcutaneous injection in cynomolgus monkeys", "experimental": "as §7\nThe animals were observed twice daily for mortality and moribundity. Clinical examinations were performed once daily for at least 6 consecutive days, including the day of randomization, prior to randomization, prior to dosing, 1-2 hours postdosing, once daily on nondosing days, and once daily during the recovery period. Detailed physical examinations were performed at least weekly during the acclimation period until randomization, on the day of randomization, weekly (±2 days) during the study period, and on the day of the scheduled necropsies. Injection site (IS) observations were performed prior to dosing (dose sites that were utilized on that day of dosing), 1-2 hours postdosing (dose sites that were utilized on that day of dosing), once daily on nondosing days (dose sites that had been previously been utilized), and twice weekly during the recovery period. Individual body weights were recorded weekly (±2 days). Individual body weights were collected at least weekly during the acclimation period until randomization, on the day of randomization, Study Day 0 (prior to dosing), weekly (2±days) during the study period, on the day prior to the day of the scheduled necropsies (nonfasted) and on the day of the scheduled necropsies (fasted). Clinical pathology parameters (hematology, coagulation, serum chemistry, and urinalysis) were analyzed during acclimation prior to randomization (Study Day −15), and on the day of the primary (Study Day 17) and recovery (Study Day 45) necropsies. Blood samples for toxicokinetic evaluation were collected from all animals/sex/group/time point prior to dose administration and at approximately 1, 2, 4, 8, 24, 48, and 72 hours after dose administration on Study Days 0 and 12. Complete necropsies were performed on all animals, and selected organs were weighed at the scheduled necropsies. Selected tissues were examined microscopically from all animals. Fingernail, toenail, nail bed, and abdominal skin samples were collected from all animals at the scheduled necropsies for bioanalytical analysis."}}, "note": "Starred links: 1 amine or outer side, 2 acyl side, 3 side chain; linkers in the order of their positions; H or OH if unused. Positions of bridges follow the written chain, without caps; N, C: chain ends. Non-standard residues stand in square brackets, D forms with d. Residues, ends and D or L forms follow the SMILES beside them. *: point of attachment. Orn(4R-OH,5R-OCH2CH2NMe3+) = C[N+](C)(C)CCO[C@@H](N[*:3])[C@H](O)C[C@H](N[*:1])C(=O)[*:2]; pTerphenylCO(4''-OnC5H11) = CCCCCOc1ccc(-c2ccc(-c3ccc(C(=O)*)cc3)cc2)cc1; hTyr(3S-OH,4S-OH) = N[C@H](C(=O)O)[C@H](O)[C@@H](O)c1ccc(O)cc1; Pro(3S-OH,4S-Me) = C[C@H]1CN[C@H](C(=O)O)[C@H]1O; Hyp = O=C(O)[C@@H]1C[C@@H](O)CN1", "data": [{"smiles": "CCCCCOc1ccc(-c2ccc(-c3ccc(C(=O)N[C@H]4C[C@@H](O)[C@@H](OCC[N+](C)(C)C)NC(=O)[C@@H]5[C@@H](O)[C@@H](C)CN5C(=O)[C@H]([C@@H](C)O)NC(=O)[C@H]([C@H](O)[C@@H](O)c5ccc(O)cc5)NC(=O)[C@@H]5C[C@@H](O)CN5C(=O)[C@H]([C@@H](C)O)NC4=O)cc3)cc2)cc1", "note": "[CD101] ({pTerphenylCO(4''-OnC5H11)}-[Orn(4R-OH,5R-OCH2CH2NMe3+)]T[Hyp][hTyr(3S-OH,4S-OH)]T[Pro(3S-OH,4S-Me)]; lactam 1-C)", "values": [{"measurement": "Percent Efficacy Clinical", "setting": "T. mentagrophytes; 10 mg/kg SQ days 1 and 8", "result": 90.5, "unit": "%"}, {"measurement": "Percent Efficacy Clinical", "setting": "T. mentagrophytes; 20 mg/kg SQ days 1 and 8", "result": 94.2, "unit": "%"}, {"measurement": "Percent Efficacy Clinical", "setting": "T. mentagrophytes; 40 mg/kg SQ days 1 and 8", "result": 98.4, "unit": "%"}, {"measurement": "survival", "setting": "[1]", "result": "All animals survived to the scheduled necropsies"}, {"measurement": "test article-related clinical observations and effects on body weights", "setting": "[1]", "result": "no test article-related clinical observations or effects on body weights"}, {"measurement": "Percent Efficacy Clinical", "setting": "[2]; 35 mg/kg SQ daily for nine days", "result": 84.0, "unit": "%"}, {"measurement": "Percent Efficacy Clinical", "setting": "[2]; 35 mg/kg SQ once a week (days 1 and 8)", "result": 78.7, "unit": "%"}, {"measurement": "clinical signs versus vehicle control group", "setting": "[2]; guinea pigs, 35 mg/kg SQ daily and weekly", "result": "fewer clinical signs than the vehicle control group beginning on day 5 post inoculation"}, {"measurement": "injection site reaction", "setting": "[2]; guinea pigs, 35 mg/kg SQ daily or once a week", "result": "no bruising or redness was noted at the injection site"}, {"measurement": "combined accumulation ratio (plasma)", "setting": "[3]; 30 mg/kg/dose SC once every 3 days, males and females combined", "result": 3.18}, {"measurement": "combined accumulation ratio (plasma)", "setting": "[3]; 60 mg/kg/dose SC once every 3 days, males and females combined", "result": 2.70}, {"measurement": "combined accumulation ratio (plasma)", "setting": "[3]; 120 mg/kg/dose SC once every 3 days, males and females combined", "result": 2.67}, {"measurement": "time by which concentrations reached maximum or near maximum observed values", "setting": "[3]; Study Day 0, postdose, SC", "result": "≤ 8", "unit": "h"}, {"measurement": "increase of combined exposure (AUC0-72 and Cmax) over a 4-fold dose change", "setting": "[3]; Study Day 12, 30 to 120 mg/kg/dose SC", "result": "approximately 3 fold"}, {"measurement": "predose concentration on Study Day 12 relative to Study Day 0 Cmax", "setting": "[3]; Study Day 12 predose, SC once every 3 days", "result": "approximately 2 fold"}, {"measurement": "Cmax", "setting": "[3]; both sexes, cynomolgus monkey, plasma, range across the 30 to 120 mg/kg groups, males and females combined, SC", "result": "21000 to 65100", "unit": "ng/mL"}, {"measurement": "AUC(0-t)", "setting": "[3]; both sexes, cynomolgus monkey, plasma, range across the 30 to 120 mg/kg groups, males and females combined, SC, read-out: AUC0-72", "result": "1360 to 4320", "unit": "µg·h/mL"}]}]}
